Reference: PubChem BioAssay (NCI)
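Compound exposure: 48 hours, 5 concentrations, 96-well plates. Abbreviation: GI50, concentration required for 50% inhibition of growth. The concentration for full growth arrest is given as TGI.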

Assays:
Assay in all cases: growth of human tumour cells (NCI), 48 h
786-0 renal = system: 786-0 renal
A549 NSCLC = system: A549 NSCLC
ACHN renal = system: ACHN renal
BT-549 breast = system: BT-549 breast
CAKI-1 renal = system: CAKI-1 renal
CCRF-CEM leukemia = system: CCRF-CEM leukemia
COLO 205 colon = system: COLO 205 colon
DU-145 prostate = system: DU-145 prostate
EKVX NSCLC = system: EKVX NSCLC
HCC-2998 colon = system: HCC-2998 colon
HCT-116 colon = system: HCT-116 colon
HCT-15 colon = system: HCT-15 colon
HL-60(TB) leukemia = system: HL-60(TB) leukemia
HOP-62 NSCLC = system: HOP-62 NSCLC
HOP-92 NSCLC = system: HOP-92 NSCLC
HS 578T breast = system: HS 578T breast
HT29 colon = system: HT29 colon
IGROV1 ovarian = system: IGROV1 ovarian
K-562 leukemia = system: K-562 leukemia
KM12 colon = system: KM12 colon
M14 melanoma = system: M14 melanoma
MCF7 breast = system: MCF7 breast
MDA-MB-231 breast = system: MDA-MB-231 breast
MDA-MB-435 = system: MDA-MB-435
MOLT-4 leukemia = system: MOLT-4 leukemia
NCI-H226 lung = system: NCI-H226 lung
NCI-H23 lung = system: NCI-H23 lung
NCI-H460 lung = system: NCI-H460 lung
NCI-H522 lung = system: NCI-H522 lung
NCI/ADR-RES ovarian = system: NCI/ADR-RES ovarian
OVCAR-3 ovarian = system: OVCAR-3 ovarian
OVCAR-4 ovarian = system: OVCAR-4 ovarian
OVCAR-5 ovarian = system: OVCAR-5 ovarian
OVCAR-8 ovarian = system: OVCAR-8 ovarian
PC-3 prostate = system: PC-3 prostate
RPMI-8226 leukemia = system: RPMI-8226 leukemia
RXF 393 renal = system: RXF 393 renal
SF-268 CNS = system: SF-268 CNS
SF-295 CNS = system: SF-295 CNS
SF-539 CNS = system: SF-539 CNS
SK-MEL-2 melanoma = system: SK-MEL-2 melanoma
SK-MEL-28 melanoma = system: SK-MEL-28 melanoma
SK-MEL-5 melanoma = system: SK-MEL-5 melanoma
SK-OV-3 ovarian = system: SK-OV-3 ovarian
SN12C renal = system: SN12C renal
SNB-19 CNS = system: SNB-19 CNS
SNB-75 CNS = system: SNB-75 CNS
SR leukemia = system: SR leukemia
SW-620 colon = system: SW-620 colon
T-47D breast = system: T-47D breast
TK-10 renal = system: TK-10 renal
U251 CNS = system: U251 CNS
UACC-257 melanoma = system: UACC-257 melanoma
UACC-62 melanoma = system: UACC-62 melanoma
UO-31 renal = system: UO-31 renal
A498 renal = system: A498 renal
LOX IMVI melanoma = system: LOX IMVI melanoma
MALME-3M melanoma = system: MALME-3M melanoma

O=C(CC(=O)N1N=C(N(c2ccccc2)c2ccccc2)CC1c1ccccc1)Nc1ccc(Cl)cc1 (centres undefined)
TGI (786-0 renal): > 100 µM
TGI (A549 NSCLC): > 100 µM
TGI (ACHN renal): > 100 µM
TGI (BT-549 breast): > 100 µM
TGI (CAKI-1 renal): > 100 µM
TGI (CCRF-CEM leukemia): > 100 µM
TGI (COLO 205 colon): > 100 µM
TGI (DU-145 prostate): > 100 µM
TGI (EKVX NSCLC): > 100 µM
TGI (HCC-2998 colon): > 100 µM
TGI (HCT-116 colon): > 100 µM
TGI (HCT-15 colon): > 100 µM
TGI (HL-60(TB) leukemia): > 100 µM
TGI (HOP-62 NSCLC): > 100 µM
TGI (HOP-92 NSCLC): > 100 µM
TGI (HS 578T breast): > 100 µM
TGI (HT29 colon): > 100 µM
TGI (IGROV1 ovarian): > 100 µM
TGI (K-562 leukemia): > 100 µM
TGI (KM12 colon): > 100 µM
TGI (M14 melanoma): > 100 µM
TGI (MCF7 breast): > 100 µM
TGI (MDA-MB-231 breast): > 100 µM
TGI (MDA-MB-435): > 100 µM
TGI (MOLT-4 leukemia): > 100 µM
TGI (NCI-H226 lung): > 100 µM
TGI (NCI-H23 lung): > 100 µM
TGI (NCI-H460 lung): > 100 µM
TGI (NCI-H522 lung): > 100 µM
TGI (NCI/ADR-RES ovarian): > 100 µM
TGI (OVCAR-3 ovarian): > 100 µM
TGI (OVCAR-4 ovarian): > 100 µM
TGI (OVCAR-5 ovarian): > 100 µM
TGI (OVCAR-8 ovarian): > 100 µM
TGI (PC-3 prostate): > 100 µM
TGI (RPMI-8226 leukemia): > 100 µM
TGI (RXF 393 renal): > 100 µM
TGI (SF-268 CNS): > 100 µM
TGI (SF-295 CNS): > 100 µM
TGI (SF-539 CNS): > 100 µM
TGI (SK-MEL-2 melanoma): > 100 µM
TGI (SK-MEL-28 melanoma): > 100 µM
TGI (SK-MEL-5 melanoma): > 100 µM
TGI (SK-OV-3 ovarian): > 100 µM
TGI (SN12C renal): > 100 µM
TGI (SNB-19 CNS): > 100 µM
TGI (SNB-75 CNS): > 100 µM
TGI (SR leukemia): > 100 µM
TGI (SW-620 colon): > 100 µM
TGI (T-47D breast): > 100 µM
TGI (TK-10 renal): > 100 µM
TGI (U251 CNS): > 100 µM
TGI (UACC-257 melanoma): > 100 µM
TGI (UACC-62 melanoma): > 100 µM
TGI (UO-31 renal): > 100 µM

N=C(N)c1ccc(NCCOCCNc2ccc(C(=N)N)cc2)cc1
GI50 (786-0 renal): > 100 µM
TGI (786-0 renal): > 100 µM
GI50 (A498 renal): 17 µM
TGI (A498 renal): 94.6 µM
GI50 (A549 NSCLC): 14.4 µM
TGI (A549 NSCLC): > 100 µM
GI50 (ACHN renal): 36.1 µM
TGI (ACHN renal): > 100 µM
GI50 (BT-549 breast): 34.9 µM
TGI (BT-549 breast): > 100 µM
GI50 (CAKI-1 renal): > 100 µM
TGI (CAKI-1 renal): > 100 µM
GI50 (CCRF-CEM leukemia): > 100 µM
TGI (CCRF-CEM leukemia): > 100 µM
GI50 (COLO 205 colon): 14.9 µM
TGI (COLO 205 colon): 39.5 µM
GI50 (DU-145 prostate): 27.4 µM
TGI (DU-145 prostate): > 100 µM
GI50 (EKVX NSCLC): 21.7 µM
TGI (EKVX NSCLC): > 100 µM
GI50 (HCC-2998 colon): 41.9 µM
TGI (HCC-2998 colon): > 100 µM
GI50 (HCT-116 colon): 49.4 µM
TGI (HCT-116 colon): > 100 µM
GI50 (HCT-15 colon): 30.2 µM
TGI (HCT-15 colon): > 100 µM
GI50 (HL-60(TB) leukemia): 60.9 µM
TGI (HL-60(TB) leukemia): > 100 µM
GI50 (HOP-62 NSCLC): 33.2 µM
TGI (HOP-62 NSCLC): > 100 µM
GI50 (HOP-92 NSCLC): 15.4 µM
TGI (HOP-92 NSCLC): 59.8 µM
GI50 (HS 578T breast): 52.8 µM
TGI (HS 578T breast): > 100 µM
GI50 (HT29 colon): 29.5 µM
TGI (HT29 colon): > 100 µM
GI50 (IGROV1 ovarian): 60.5 µM
TGI (IGROV1 ovarian): > 100 µM
GI50 (K-562 leukemia): 21.3 µM
TGI (K-562 leukemia): > 100 µM
GI50 (KM12 colon): 43.8 µM
TGI (KM12 colon): > 100 µM
GI50 (LOX IMVI melanoma): > 100 µM
TGI (LOX IMVI melanoma): > 100 µM
GI50 (M14 melanoma): 55.4 µM
TGI (M14 melanoma): > 100 µM
GI50 (MALME-3M melanoma): 29.7 µM
TGI (MALME-3M melanoma): 87 µM
GI50 (MCF7 breast): 16 µM
TGI (MCF7 breast): > 100 µM
GI50 (MDA-MB-231 breast): > 100 µM
TGI (MDA-MB-231 breast): > 100 µM
GI50 (MDA-MB-435): 81.3 µM
TGI (MDA-MB-435): > 100 µM
GI50 (MOLT-4 leukemia): > 100 µM
TGI (MOLT-4 leukemia): > 100 µM
GI50 (NCI-H226 lung): 13.3 µM
TGI (NCI-H226 lung): > 100 µM
GI50 (NCI-H23 lung): 6.91 µM
TGI (NCI-H23 lung): > 100 µM
GI50 (NCI-H460 lung): 2.94 µM
TGI (NCI-H460 lung): > 100 µM
GI50 (NCI-H522 lung): 29.8 µM
TGI (NCI-H522 lung): > 100 µM
GI50 (NCI/ADR-RES ovarian): 78.5 µM
TGI (NCI/ADR-RES ovarian): > 100 µM
GI50 (OVCAR-3 ovarian): 69.1 µM
TGI (OVCAR-3 ovarian): > 100 µM
GI50 (OVCAR-4 ovarian): 34.1 µM
TGI (OVCAR-4 ovarian): > 100 µM
GI50 (OVCAR-5 ovarian): > 100 µM
TGI (OVCAR-5 ovarian): > 100 µM
GI50 (OVCAR-8 ovarian): 34.4 µM
TGI (OVCAR-8 ovarian): > 100 µM
GI50 (PC-3 prostate): 50.7 µM
TGI (PC-3 prostate): > 100 µM
GI50 (RPMI-8226 leukemia): 22 µM
TGI (RPMI-8226 leukemia): > 100 µM
GI50 (SF-268 CNS): 45.3 µM
TGI (SF-268 CNS): > 100 µM
GI50 (SF-295 CNS): 43.3 µM
TGI (SF-295 CNS): > 100 µM
GI50 (SF-539 CNS): 36.8 µM
TGI (SF-539 CNS): > 100 µM
GI50 (SK-MEL-2 melanoma): 51.6 µM
TGI (SK-MEL-2 melanoma): > 100 µM
GI50 (SK-MEL-28 melanoma): 73.3 µM
TGI (SK-MEL-28 melanoma): > 100 µM
GI50 (SK-MEL-5 melanoma): 25.5 µM
TGI (SK-MEL-5 melanoma): 89.4 µM
GI50 (SK-OV-3 ovarian): 7.86 µM
TGI (SK-OV-3 ovarian): 51.7 µM
GI50 (SN12C renal): 4.28 µM
TGI (SN12C renal): > 100 µM
GI50 (SNB-19 CNS): 27.3 µM
TGI (SNB-19 CNS): > 100 µM
GI50 (SNB-75 CNS): 19.2 µM
TGI (SNB-75 CNS): 81.3 µM
GI50 (SR leukemia): 49 µM
TGI (SR leukemia): > 100 µM
GI50 (SW-620 colon): 63.6 µM
TGI (SW-620 colon): > 100 µM
GI50 (T-47D breast): 7.17 µM
TGI (T-47D breast): 75.6 µM
GI50 (TK-10 renal): > 100 µM
TGI (TK-10 renal): > 100 µM
GI50 (U251 CNS): 35.9 µM
TGI (U251 CNS): > 100 µM
GI50 (UACC-257 melanoma): > 100 µM
TGI (UACC-257 melanoma): > 100 µM
GI50 (UACC-62 melanoma): 29.2 µM
TGI (UACC-62 melanoma): > 100 µM
GI50 (UO-31 renal): 47.2 µM
TGI (UO-31 renal): > 100 µM
